Data from US20040073074A1, “Method of continuous production of polyalkylbiphenyls” (priority 2002, published 2004).

Assay: Confirmation of precipitation of 4,4′-diisopropylbiphenyl crystals on cooling
Type: physicochemical
Conditions: cooled to −10° C.
Method: (Confirmation of Precipitation of 4,4′-diisopropylbiphenyl Crystals)
Solutions each containing 4,4′-diisopropylbiphenyl in ratios of 15% by mass and 30% by mass in diisopropylbiphenyl were respectively prepared in an amount of 50 g. Each solution was cooled to −10° C. […] Therefore, as mentioned above, in the case where the content of diisopropylbiphenyl contained in the solution recovery from the tower top of the distillation tower is 7.6% by mass and this amount is 27.6% by mass of the amount of diisopropylbiphenyl measured at the outlet of the reactor, with the result that the amount of 4,4′-diisopropylbiphenyl in diisopropylbiphenyl as a product is 14.1% by mass, there is no particular problem as to the low-temperature characteristics of the product. However, if the amount of diisopropylbiphenyl contained in the solution recovery from the tower top of the distillation tower becomes increase and the amount of 4,4′-diisopropylbiphenyl in diisopropylbiphenyl as a product becomes increase, the low-temperature characteristics will deteriorate.

CC(C)c1ccc(-c2ccc(C(C)C)cc2)cc1 [4,4′-diisopropylbiphenyl]
precipitation of crystals (15% by mass in diisopropylbiphenyl): no precipitation of crystals was observed
precipitation of crystals (30% by mass in diisopropylbiphenyl): a large amount of 4,4′-diisopropylbiphenyl precipitated
